Measurements from patent US4255433A, “(+)-(3-Methyl-4-oxo-5N-piperidinothiazolidin-2-ylidene)acetic acid esters, method of preparation and use” (Godecke Aktiengesellschaft, priority 1979, dated 1981).
“Also recorded” adds a separate entry of the source. Read-outs that look alike come from different tables or passages of the source.

Tests used:
[1] = Racemization of (+)-ozolinone in 0.1N hydrochloric acid and in chloroform; type: physicochemical; settings: read-out: degree of racemization
Procedure: Esterification of the known, optically-active (+)-(3-methyl-4-oxo-5N-piperidinothiazolidin-2-ylidene)-acetic acid [(+)-ozolinone (see Federal Republic of Germany Patent Specification No. 26 58 858)] also cannot be carried out with agents which can be used on a large scale because it racemizes under the esterification conditions. Thus, for example, (+)-ozolinone racemizes to an extent of 15% in 0.1N hydrochloric acid in less than 1 hour. Even in chloroform, in the same period of time, the degree of racemization which occurs is about 10%.

awake rats (diuresis) = assay: Diuresis in awake rats (urine volume within the first 4 hours); type: in vivo, rat (SIV 50 strain); settings: intragastral, urine volume in 4 hours, FIG. 2
Procedure: The experimental animals used were male rats of the SIV 50 strain which were kept under constant conditions. Feed was removed 36 hours before the commencement of the experiments but water was available until just before the commencement of the experiment. The test substances were administered intragastrally as suspensions in 1% tragacanth slurry which has been prepared with a 0.2% sodium chloride solution (1 ml/100 g body weight). In addition, the animals were given intragastrally 4 ml/100 g body weight a 0.2% sodium chloride solution. The animals were kept individually in metabolic cages in order to determine the urine volumes within the first 4 hours.

[2] = system: rats with renovascular high blood pressure; assay: Renovascular high blood pressure in rats; type: in vivo, rat (SIV 50 strain); set-up: average blood pressure: unit: mmHg
Source text: The antihypertensive properties were investigated in rats which, after experimental ligature of the kidney blood flow, had developed a renovascular high blood pressure. The experimental animals used were male rats of the SIV 50 strain which, under ether narcosis, had been monolaterally nephrectomised and the contralateral renal arteries of which had been stenosed 2 days later with the help of silver clips. After 6 to 8 weeks, these animals developed a high blood pressure. The blood pressure measurement took place bloodlessly on the root of the tail of the animals. The test substances were administered intragastrally once daily as tragacanth slurry suspensions for 33 days.

[3] = Acute toxicity in rats (intragastral, 7 days observation, LD50 by Weber's probit analysis); type: in vivo, rat (SIV 50 strain); settings: rat, in vivo, po
Procedure: (§1) The experimental animals used were male and female rats of the SIV 50 strain with a body weight of 115 to 170 g and of 100 to 160 g, respectively. All the animals were fasted for 20 hours before the commencement of the experiments, water was available ad libitum. There were 10 animals in each dosage group. The test substances were administered intragastrally with a metal probe in the form of 1% tragacanth slurry suspensions (4 ml/100 g of body weight).
(§2) The animals were observed over a period of time of 7 days. For the calculation of the LD50 with the related confidence limits, use was made of Weber's probit analysis (see Grundriss der Biologischen Statistik, pub. Gustav Fischer Verlag, Jena, 1-72).

[4] = system: male and female rats of the SIV 50 strain; assay: as above; type: in vivo, rat (SIV 50 strain); settings: rat
Procedure: as §1, §2

mice = settings: male mice; literature (Meng-Loew, Diuretika, 1974); cited from earlier work
[5] = cited from earlier work
[6] = 100 mg/kg i.g., 2nd day after treatment
[7] = 100 mg/kg i.g., 20th day of treatment
[8] = 100 mg/kg i.g., before treatment
[9] = 200 mg/kg i.g., 8th day after treatment
[10] = 200 mg/kg i.g., 10th day of treatment
[11] = 200 mg/kg i.g., 17th day of treatment
[12] = 200 mg/kg i.g., 33rd day of treatment
[13] = 200 mg/kg i.g., before treatment

Q: For `CN1C(=O)C(N2CCCCC2)SC1=CC(=O)O` (single isomer, unassigned; (+)) [(+)-ozolinone, (+)-(3-methyl-4-oxo-5N-piperidinothiazolidin-2-ylidene)-acetic acid], which degraded at 1 h ([1]; 0.1N hydrochloric acid, less than 1 hour) is on record?
A: The degraded at 1 h was 15%.

Q: And the degraded at 1 h ([1]; chloroform, same period of time (less than 1 hour))?
A: Its degraded at 1 h is about 10%.

Q: For `CCOC(=O)C=C1SC(N2CCCCC2)C(=O)N1C` (single isomer, unassigned) [Compound C, ethyl (-)-(3-methyl-4-oxo-5N-piperidinothiazolidin-2-ylidene)acetate], which “diuretic action (in words)” value (awake rats (diuresis)) is on record?
A: Its value is “diuretically effective in a dosage dependent manner”.

Q: And the average blood pressure [2, 6]?
A: Its average blood pressure is 201.

Q: And the average blood pressure [2, 7]?
A: The average blood pressure was 176.

Q: What about the average blood pressure [2, 8] of the same compound?
A: The average blood pressure was 191.

Q: What about the average blood pressure [2, 9] of the same compound?
A: The average blood pressure was 190.

Q: And the average blood pressure [2, 10]?
A: The average blood pressure was 178.

Q: And the average blood pressure [2, 11]?
A: The average blood pressure was 176.

Q: What about the average blood pressure [2, 12] of the same compound?
A: Its average blood pressure is 164.

Q: And the average blood pressure [2, 13]?
A: The average blood pressure was 192.

Q: With `CCOC(=O)C=C1SC(N2CCCCC2)C(=O)N1C` (single isomer, unassigned) [Compound B, ethyl (+)-(3-methyl-4-oxo-5N-piperidinothiazolidin-2-ylidene)acetate] as the compound, how does the LD50 at 168 h ([3]; bound stated) read?
A: The LD50 at 168 h was over 2000 mg/kg.

Q: What about the LD50 at 168 h ([3]; female rat) of the same compound?
A: Its LD50 at 168 h is 4230 mg/kg.

Q: What about the LD50 at 168 h ([3]; male rat) of the same compound?
A: The LD50 at 168 h was 3650 mg/kg.

Q: What about the “acute toxicity (in words)” value [4] of the same compound?
A: Its value is “more toxic than Compound A; also recorded: extraordinarily nontoxic”.

Q: What about the “diuretic action (in words)” value (awake rats (diuresis)) of the same compound?
A: The value was “diuretically inactive; also recorded: does not possess any diuretic action at all”.

Q: What about the average blood pressure [2, 6] of the same compound?
A: The average blood pressure was 190.

Q: What about the average blood pressure [2, 7] of the same compound?
A: Its average blood pressure is 164.

Q: What about the average blood pressure [2, 8] of the same compound?
A: The average blood pressure was 189.

Q: And the average blood pressure [2, 9]?
A: The average blood pressure was 182.

Q: And the average blood pressure [2, 10]?
A: The average blood pressure was 159.

Q: And the average blood pressure [2, 11]?
A: The average blood pressure was 150.

Q: What about the average blood pressure [2, 12] of the same compound?
A: The average blood pressure was 156.

Q: What about the average blood pressure [2, 13] of the same compound?
A: The average blood pressure was 185.

Q: What about the “antihypertensive action (in words)” value ([2]; rats with renovascular high blood pressure) of the same compound?
A: Its value is “possesses the strongest antihypertensive action and that this effect is dosage dependent”.

Q: Which LD50 (mice) does the source give for `C=C(CC)C(=O)c1ccc(OCC(=O)O)c(Cl)c1Cl` [Compound F, [2,3-dichloro-4-(2-methylene-1-oxobutyl)phenoxy]acetic acid] here?
A: Its LD50 is 600 mg/kg.

Q: What does the source list for `CCOC(=O)C=C1SC(N2CCCCC2)C(=O)N1C` (racemic) [Compound A, ethyl (±)-(3-methyl-4-oxo-5N-piperidinothiazolidin-2-ylidene)acetate]?
A: LD50 at 168 h ([3]; female rat): 10200 mg/kg; LD50 at 168 h ([3]; male rat): 11000 mg/kg; diuretic action (in words) (awake rats (diuresis)): diuretically effective in a dosage dependent manner; average blood pressure [2, 6]: 195; average blood pressure [2, 7]: 175; average blood pressure [2, 8]: 197; average blood pressure [2, 9]: 182; average blood pressure [2, 10]: 171; average blood pressure [2, 11]: 182; average blood pressure [2, 12]: 174; average blood pressure [2, 13]: 187; antihypertensive activity (in words) ([5]; published): good antihypertensive activity; diuretic / saluretic activity (in words) ([5]; published): strong diuretic and saluretic properties; antihypertensive effect at subdiuretic doses (in words) ([5]; subdiuretic doses, DE 25 32 180): even at subdiuretic doses, an antihypertensive effect occurs

Q: For `NS(=O)(=O)c1cc2c(cc1Cl)NCNS2(=O)=O` [Compound D, 6-chloro-3,4-dihydro-2H-1,2,4-benzothiadiazine-7-sulphonamide 1,1-dioxide], which LD50 (mice) is on record?
A: Its LD50 is 3,080 mg/kg.
